Tested on: HUVEC TNFalpha-induced p65 nuclear translocation, imaging
Experiment: inhibitors of TNFa-induced NFkB p65 translocation, SAR follow-up, imaging, HUVEC (AID 1023)

| Structure (SMILES) | IC50 [nM] |
| --- | --- |
| Cc1ccc2cccc(NS(=O)(=O)c3ccc(Cl)s3)c2n1 | 986 |
| COc1ccc(S(=O)(=O)Nc2cccc3ccc(C)nc23)c([N+](=O)[O-])c1 | 1020 |
| Cc1ccc2cccc(NS(=O)(=O)c3cccc([N+](=O)[O-])c3)c2n1 | 912 |
| COc1cc2ccc(C)nc2c2c1-c1cc(C)ccc1S(=O)(=O)N2 | 886 |
| Cc1ccc2c(c1)-c1ccc3cccnc3c1NS2(=O)=O | 562 |
| COc1ccc2c(c1)-c1ccc3cccnc3c1NS2(=O)=O | 992 |
